From patent US8461328B2, “Tricyclic heterocyclic compounds, compositions and methods of use thereof” (Genentech, Inc., priority 2010, dated 2013)
Read-outs that look alike come from different tables or passages of the source.

Legend:
Format in all cases: biochemical
JAK1 = molecular target: T1, JAK1 (Homo sapiens, UniProt P23458); experiment: JAK1 inhibition (Table 4)
T1 construct: made in house; host or cells: SF9 insect cells (baculovirus)

JAK2 = molecular target: T2, JAK2 (Homo sapiens, UniProt O60674); experiment: JAK2 inhibition (Table 4); settings: read-out: JAK2 Ki
T2 construct: made in house; host or cells: SF9 insect cells (baculovirus)
T2 sequence (O60674 812-1132): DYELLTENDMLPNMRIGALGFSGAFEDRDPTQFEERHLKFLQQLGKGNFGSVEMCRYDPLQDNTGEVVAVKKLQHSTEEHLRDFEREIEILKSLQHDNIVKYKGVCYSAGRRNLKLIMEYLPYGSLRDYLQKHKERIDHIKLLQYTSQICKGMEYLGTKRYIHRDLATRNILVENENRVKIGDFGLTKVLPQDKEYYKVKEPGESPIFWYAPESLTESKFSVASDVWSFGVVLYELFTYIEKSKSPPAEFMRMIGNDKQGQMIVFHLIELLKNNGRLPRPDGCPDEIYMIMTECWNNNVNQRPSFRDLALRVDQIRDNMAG

JAK3 = molecular target: T3, JAK3 (Homo sapiens, UniProt P52333); experiment: JAK3 inhibition (Table 4); settings: read-out: JAK3 Ki
T3 construct: made in house; host or cells: SF9 insect cells (baculovirus)
T3 sequence (P52333 783-1124): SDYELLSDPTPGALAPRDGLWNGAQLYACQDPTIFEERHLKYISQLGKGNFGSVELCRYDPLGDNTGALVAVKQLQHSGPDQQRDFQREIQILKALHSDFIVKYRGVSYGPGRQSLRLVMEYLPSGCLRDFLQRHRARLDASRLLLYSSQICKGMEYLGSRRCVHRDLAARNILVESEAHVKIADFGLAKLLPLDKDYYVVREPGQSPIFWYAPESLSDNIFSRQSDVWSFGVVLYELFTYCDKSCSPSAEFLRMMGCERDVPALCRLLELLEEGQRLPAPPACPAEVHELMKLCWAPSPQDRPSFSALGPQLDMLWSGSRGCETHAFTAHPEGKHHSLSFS

TYK2 = molecular target: T4, TYK2 (Homo sapiens, UniProt P29597); experiment: TYK2 inhibition (Table 4)
T4 construct: made in house; host or cells: SF9 insect cells (baculovirus)
T4 sequence (P29597 873-1187): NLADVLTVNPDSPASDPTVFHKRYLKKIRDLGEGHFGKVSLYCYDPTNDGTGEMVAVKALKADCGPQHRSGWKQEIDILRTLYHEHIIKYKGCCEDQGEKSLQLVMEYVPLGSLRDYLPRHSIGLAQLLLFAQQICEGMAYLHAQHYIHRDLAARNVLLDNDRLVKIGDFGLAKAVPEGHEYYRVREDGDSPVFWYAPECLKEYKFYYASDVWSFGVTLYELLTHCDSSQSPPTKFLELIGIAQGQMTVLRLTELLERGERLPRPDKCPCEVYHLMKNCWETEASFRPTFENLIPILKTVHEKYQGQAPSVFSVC

T1 sequence (P23458 852-1154): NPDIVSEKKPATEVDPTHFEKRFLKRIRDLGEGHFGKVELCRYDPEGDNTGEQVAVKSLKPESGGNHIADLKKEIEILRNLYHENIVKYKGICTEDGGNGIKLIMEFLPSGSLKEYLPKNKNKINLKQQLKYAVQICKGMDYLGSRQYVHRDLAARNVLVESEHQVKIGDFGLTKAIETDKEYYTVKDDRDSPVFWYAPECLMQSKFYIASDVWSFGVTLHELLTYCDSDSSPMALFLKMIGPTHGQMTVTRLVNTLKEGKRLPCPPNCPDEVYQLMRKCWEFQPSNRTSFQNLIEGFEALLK

| Structure (SMILES) | Ki (JAK1; read-out: JAK1 Ki) [nM] | Ki (JAK2) [nM] | Ki (JAK3) [nM] | Ki (TYK2) [nM] | Ki (JAK1; JAK1 Ki) [nM] |
| --- | --- | --- | --- | --- | --- |
| CC(O)c1nc2cnc3[nH]ccc3c2n1C1CCN(Cc2cnco2)CC1F (stereo not shown) [Example 933, 1-[1-(3-Fluoro-1-oxazol-5-ylmethyl-piperidin-4-yl)-1,6-dihydro-1,3,5,6-tetraaza-as-indacen-2-yl]-ethanol] | 1.84 | 38.5 | 11.2 | 54.5 |  |
| COCC(=O)NCc1nc2cnc3[nH]ccc3c2n1C1CCN(CCC#N)CC1 [Example 503, N-{1-[1-(2-Cyano-ethyl)-piperidin-4-yl]-1,6-dihydro-1,3,5,6-tetraaza-as-indacen-2-ylmethyl}-2-methoxy-acetamide] | 2.54 | 10.4 | 19.6 | 50.5 |  |
| Cc1nc2cnc3[nH]ccc3c2n1C1CCN(Cc2ccccc2)CC1(F)F (racemic) [Example 428, 1-(1-Benzyl-3,3-difluoro-piperidin-4-yl)-2-methyl-1,6-dihydro-1,3,5,6-tetraaza-as-indacene] | 0.64 | 0.78 | 1.62 | 12.7 |  |
| O=C(Cc1nc2cnc3[nH]ccc3c2n1C1CCCOC1)NC1CCC1 (racemic) [Example 965, N-Cyclobutyl-2-[1-(tetrahydro-pyran-3-yl)-1,6-dihydro-1,3,5,6-tetraaza-as-indacen-2-yl]-acetamide] | 31.6 | 160 | 107 | 306 |  |
| OCc1nc2cnc3[nH]ccc3c2n1C1CCN(CCC(F)(F)F)CC1 [Example 760, {1-[1-(3,3,3-Trifluoro-propyl)-piperidin-4-yl]-1,6-dihydro-1,3,5,6-tetraaza-as-indacen-2-yl}-methanol] | 3.46 | 23 | 21.7 | 25.4 |  |
| CCN1CCC(n2c(CCNS(C)(=O)=O)nc3cnc4[nH]ccc4c32)C(F)(F)C1 (single isomer, unassigned) [Example 805, N-{2-[1-(1-Ethyl-3,3-difluoro-piperidin-4-yl)-1,6-dihydro-1,3,5,6-tetraaza-as-indacen-2-yl]-ethyl}-methanesulfonamide] | 2.8 | 36 | 9.01 | 158 |  |
| CC(C)(C)COCc1nc2cnc3[nH]ccc3c2n1C1CCN(CCC#N)CC1 [Example 683, 3-{4-[2-(2,2-Dimethyl-propoxymethyl)-6H-1,2,3,5,6-tetraaza-as-indacen-1-yl]-piperidin-1-yl}-propionitrile] | 162 | 259 | 308 | 1750 |  |
| N#CCCN1CCC(n2c(C3CCC3)nc3cnc4[nH]ccc4c32)CC1 [Example 327, 3-[4-(2-Cyclobutyl-6H-1,3,5,6-tetraaza-as-indacen-1-yl)-piperidin-1-yl]-propionitrile] | 4.84 | 16.9 | 20 | 138 |  |
| C[C@@H](O)c1nc2cnc3[nH]ccc3c2n1[C@@H]1CCCN(C(=O)C2CCOCC2)C1 [Example 783, {(R)-3-[2-((R)-1-Hydroxy-ethyl)-6H-1,3,5,6-tetraaza-as-indacen-1-yl]-piperidin-1-yl}-(tetrahydro-pyran-4-yl)-methanone] | 137 | 1460 | 2660 | 1790 |  |
| O=C(CN1CCC(n2cnc3cnc4[nH]ccc4c32)CC1)c1ccccc1 [Example 74] | 1.25 | 2.98 | 31.9 | 14.2 |  |
| OCCc1nc2cnc3[nH]ccc3c2n1[C@@H]1CCCOC1 [Example 864, (R)-2-[1-(Tetrahydro-pyran-3-yl)-1,6-dihydro-1,3,5,6-tetraaza-as-indacen-2-yl]-ethanol] | 71.7 | 235 | 305 | 286 |  |
| CC(O)c1nc2cnc3[nH]ccc3c2n1C1CCN(Cc2csc(C(F)(F)F)n2)CC1 (racemic) [Example 351, 1-{1-[1-(2-Trifluoromethyl-thiazol-4-ylmethyl)-piperidin-4-yl]-1,6-dihydro-1,3,5,6-tetraaza-as-indacen-2-yl}-ethanol] | 4.94 | 29.2 | 31.4 | 284 |  |
| O=S(=O)(Cc1ccccc1)N1CCC(n2cnc3cnc4[nH]ccc4c32)CC1 [Example 449, 1-(1-Phenylmethanesulfonyl-piperidin-4-yl)-1,6-dihydro-1,3,5,6-tetraaza-as-indacene] | 3.5 | 8.22 | 32.6 | 58.2 |  |
| Cn1ncc2c1CC[C@H](n1cnc3cnc4[nH]ccc4c31)C2 [Example 954, 1-((S)-1-Methyl-4,5,6,7-tetrahydro-1H-indazol-5-yl)-1,6-dihydro-1,3,5,6-tetraaza-as-indacene] | 39.9 | 97.6 | 344 | 338 |  |
| CCS(=O)(=O)NCc1nc2cnc3[nH]ccc3c2n1C1CCN(CCC#N)CC1 [Example 504] | 7.75 | 25.4 | 53.6 | 116 |  |
| Cc1nc2cnc3[nH]ccc3c2n1C1CCN(CC(O)(C(F)(F)F)C(F)(F)F)CC1 [Example 354, 1,1,1,3,3,3-Hexafluoro-2-[4-(2-methyl-6H-1,3,5,6-tetraaza-as-indacen-1-yl)-piperidin-1-ylmethyl]-propan-2-ol] | 2.5 | 5.24 | 120 | 10.9 |  |
| N#CCC1(N2CCC(n3cnc4cnc5[nH]ccc5c43)CC2)COC1 [Example 195, {3-[4-(6H-1,2,3,5,6-Tetraaza-as-indacen-1-yl)-piperidin-1-yl]-oxetan-3-yl}-acetonitrile] | 0.66 | 1.13 | 27.6 | 2.16 |  |
| CC1(C)CC1C(=O)N1CCC[C@@H](n2cnc3cnc4[nH]ccc4c32)C1 (stereo partly drawn) [Example 226, (2,2-Dimethyl-cyclopropyl)-[(R)-3-(6H-1,3,5,6-tetraaza-as-indacen-1-yl)-piperidin-1-yl]-methanone] | 16.2 | 18.1 | 78.5 | 82.1 |  |
| CN1CCC(NC(=O)Cc2nc3cnc4[nH]ccc4c3n2C2CCCOC2)CC1 (racemic) [Example 981, N-(1-Methyl-piperidin-4-yl)-2-[1-(tetrahydro-pyran-3-yl)-1,6-dihydro-1,3,5,6-tetraaza-as-indacen-2-yl]-acetamide] | 66 | 177 | 162 | 376 |  |
| CCS(=O)(=O)N1CCC(C)(n2cnc3cnc4[nH]ccc4c32)CC1 [Example 757, 1-(1-Ethanesulfonyl-4-methyl-piperidin-4-yl)-1,6-dihydro-1,3,5,6-tetraaza-as-indacene] | 2.06 | 10 | 82.8 | 33.8 |  |
| COC[C@H]1CC[C@H](n2c(CO)nc3cnc4[nH]ccc4c32)CC1 [Example 636, Trans[1-(4-methoxymethyl-cyclohexyl)-1,6-dihydro-1,2,3,5,6-tetraaza-as-indacen-2-yl]-methanol] | 3.82 | 15.6 | 28 | 6.5 |  |
| COCCN1CCC[C@@H](n2cnc3cnc4[nH]ccc4c32)C1 [Example 61, 1-[(R)-1-(2-Methoxy-ethyl)-piperidin-3-yl]-1,6-dihydro-1,3,5,6-tetraaza-as-indacene] | 153 | 253 | 220 | 1050 |  |
| Cc1nc2cnc3[nH]ccc3c2n1[C@H]1CC[C@@H](C(=O)O)CC1 [Example 420, 4-(2-Methyl-6H-1,3,5,6-tetraaza-as-indacen-1-yl)-cyclohexanecarboxylic acid] | 66.2 | 80.6 | 39.1 | 28.6 |  |
| Cc1nc2cnc3[nH]ccc3c2n1C1CN2CCC1CC2 (stereo not shown) [Example 928, 1-(1-Aza-bicyclo[2.2.2]oct-3-yl)-2-methyl-1,6-dihydro-1,3,5,6-tetraaza-as-indacene] | 125 | 206 | 449 | 887 |  |
| N#Cc1cccc(CN2CCC(n3c(CC(=O)N4CCC(F)(F)CC4)nc4cnc5[nH]ccc5c43)CC2)n1 [Example 309] | 52 | 295 | 93.4 | 1940 |  |
| CC(C)OCCOCc1nc2cnc3[nH]ccc3c2n1C1CCN(CCC#N)CC1 [Example 843, 3-{4-[2-(2-Isopropoxy-ethoxymethyl)-6H-1,3,5,6-tetraaza-as-indacen-1-yl]-piperidin-1-yl}-propionitrile] | 84.2 | 80.8 | 169 | 631 |  |
| CCC(=O)N1CCC[C@@H](n2c([C@@H](C)O)nc3cnc4[nH]ccc4c32)C1 [Example 795, 1-{(R)-3-[2-((R)-1-Hydroxy-ethyl)-6H-1,3,5,6-tetraaza-as-indacen-1-yl]-piperidin-1-yl}-propan-1-one] | 221 | 876 | 1370 | 698 |  |
| FC(F)(F)c1nc2cnc3[nH]ccc3c2n1[C@@H]1CCCN(Cc2ccccc2)C1 [Example 287] |  | 145 | 822 | 2050 | 282 |
| CN(C(=O)Cc1nc2cnc3[nH]ccc3c2n1C1CCNCC1)C1CCCC1 [Example 257, N-Cyclopentyl-N-methyl-2-(1-piperidin-4-yl-1,6-dihydro-1,3,5,6-tetraaza-as-indacen-2-yl)-acetamide] | 200 |  | 397 | 3430 |  |
